Broadly, the AC50 is the concentration giving half of the maximal activity seen.

Active and inactive are the calls of the source.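 The calls were made as follows: active = caspase luminescence falls with dose and the half-maximal concentration AC50 from the fitted curve is at or below a set limit; inconclusive = flat fit at 30 to 70% signal loss, or invalid fit; inactive = AC50 above the limit, or signal rises instead.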 Where only a bound is given, the exact number is not on record here.

This assay has as its system INS-1E cytokine-induced caspase-3/7, Caspase-Glo luminescence, 48 h. The assay is described as follows: suppression of cytokine-driven beta-cell apoptosis – INS-1E rat cells, luminescence, orthogonal assay for beta-cell apoptosis protection project, dose response (AID 463206).
As for `COc1cccc(N=Nc2ccc(O)c3ncccc23)c1`, the AC50 was > 26 µM (inactive). Take `COc1ccc(NC(=O)/C(Cl)=C(/Cl)S(=O)Cc2ccc(C)cc2)cn1` (stereo not drawn): the AC50 is > 26 µM (inactive). As for `CN(C)S(=O)(=O)c1cccc(CSCc2cccc(S(=O)(=O)N(C)C)c2)c1`, the figure is > 26 µM (inactive). As for `Cc1cc(C)c2c(N)c3cccc(C)c3nc2n1`, the figure is 4.47 µM; as for `C#Cc1ccc([C@@H]2C=C(C(=O)N3CCN(Cc4ccccc4)CC3)O[C@H](OCCCCO)C2)cc1`, > 26 µM (inactive); as for `CCN(CC)C(=O)c1cc([N+](=O)[O-])cc2c1-c1ccc([N+](=O)[O-])cc1C2=C(C#N)C#N`, > 26 µM (inactive). `CCCC[n+]1ccn(C2=C([O-])c3ccccc3C(=O)/C2=N\S(=O)(=O)c2ccc(Cl)cc2)c1`: the AC50 is > 26 µM (inactive). With `Cc1cc(Nc2cccc(Cl)c2)nc(NCc2ccccc2)n1`, the AC50 is > 26 µM (inactive).

For the molecule `CC(=O)c1c(C)[nH]c(C(=O)CN2CCN(S(=O)(=O)c3ccccc3)CC2)c1C`, the AC50 is > 26 µM (inactive). As for `COc1ccc(C(=O)N2CCN(c3ccc([N+](=O)[O-])c(NCCc4ccc(OC)c(OC)c4)c3)CC2)cc1`, the figure is > 26 µM (inactive); as for `O=C(N/N=C/c1c(O)ccc2ccccc12)c1cccnc1`, > 26 µM (inactive); as for `COC1=C(Nc2ccccc2)C(=O)c2ccccc2C1=O`, > 26 µM (inactive). `COc1ccc(C[C@H]2CN3C(=NC[C@@H]3Cc3ccccc3)N2CCNC(=O)CCC2CCCCC2)cc1`: the AC50 was > 26 µM (inactive). `CCCOc1ccc(C(=O)C(CN2CCOCC2)c2ccccc2)cc1` (stereo not drawn): the AC50 was > 12 µM (inactive). As for `CC(=O)NC(c1cc(Cl)c2cccnc2c1O)C(C)C` (stereo not drawn), the AC50 is > 26 µM (inactive).

With `Nc1nonc1-n1nnc(C(=O)N/N=C/c2cc(Cl)ccc2O)c1CN1CCCCCC1`, the AC50 is > 26 µM (inactive). In the case of `O=C(c1cc2sccc2n1Cc1ccccc1)N1CCN(c2nc3ccccc3s2)CC1`, the AC50 was > 26 µM (inactive).

Take `CCCCC(=O)N1C/C=C\C(c2ccc(OC)cc2)N(Cc2ccc(F)cc2)C(=O)[C@H]1Cc1ccccc1` (stereo partly drawn): the AC50 was > 26 µM (inactive).

Turning to `O=C(Nc1ccc(C(=O)Nc2ccccc2Cl)cc1)c1cccnc1`, the AC50 was > 26 µM (inactive). As for `CC(C)(C)c1ccc(C2CC2C(=O)N/N=C\c2ccc[nH]2)cc1` (stereo not drawn), the figure is > 26 µM (inactive).

With `COc1cc(SC)ccc1C(=O)Nc1nc2ccccc2[nH]1`, the AC50 is > 26 µM (inactive). On to `COc1ccc(-[n+]2c(C)cc(/C=C3\Sc4ccccc4N3C)cc2C)cc1`, for which the AC50 is > 26 µM (inactive).

`CC1=NNC(=O)/C1=C\c1cn(-c2ccccc2)nc1-c1ccccc1`: the AC50 is > 26 µM (inactive). Regarding `C[n+]1c2n(c3ccccc31)N=C(c1ccc(-c3ccccc3)cc1)CS2`, the AC50 is > 26 µM (inactive).

As for `C=C1C(=O)O[C@@H]2C[C@@H](C)[C@@H]3C=CC(=O)[C@@]3(C)[C@@H](OC(=O)CC(=O)O[C@H]3[C@@H]4C(=C)C(=O)O[C@@H]4C[C@@H](C)[C@@H]4C=CC(=O)[C@]43C)[C@H]12`, the AC50 was > 26 µM (inactive). On to `CN(C)S(=O)(=O)c1ccc(Oc2ccc(S(=O)(=O)N(C)C)cc2)cc1`, for which the AC50 was > 26 µM (inactive). For the molecule `Nc1nc(F)nc2c1ncn2[C@@H]1O[C@H](CO)[C@@H](O)[C@H]1O`, the AC50 is > 26 µM (inactive).

Regarding `Cc1nc(N/N=C/c2ccccn2)sc1C`, the AC50 was > 26 µM (inactive). Take `CCCCCc1ccc(OCCCC[n+]2cccc(C)c2)c(CCCCC)c1`: the AC50 was > 26 µM (inactive). With `Cc1ccc([N+](=O)[O-])c(OCCN2CCCCCC2)c1`, the AC50 was > 26 µM (inactive).

`O=[N+]([O-])c1ccc(-c2nc(C(Cl)Cl)c3ccccc3n2)cc1`: the AC50 is 0.62 µM. Consider `O=C(Nc1cccnc1)c1ccc([N+](=O)[O-])s1`, for which the AC50 was > 26 µM (inactive). For `O=C(N/N=C/c1ccc[nH]1)c1ccc(COc2cccc3cccnc23)cc1`, the AC50 is > 26 µM (inactive). For the molecule `C/C(=N\NC(=O)c1cc(-c2cccs2)nc2ccccc12)c1ccccn1`, the AC50 was > 26 µM (inactive). On to `CCCOc1ccc(Br)cc1CSC(=N)N`, for which the AC50 was > 12 µM (inactive). In the case of `COc1ccc(C2C(C#N)=C(N)Oc3c2ccc2cccnc32)cc1OC` (stereo not drawn), the AC50 is > 12 µM (inactive).

Take `COc1ccc(-c2cc(-c3ccccc3)[n+](C)c(-c3ccccc3)c2)cc1`: the AC50 is > 26 µM (inactive).

`O=C(Nc1cccnc1)C1(F)C(F)(F)C(F)(F)C(F)(F)C(F)(F)C1(F)F`: the AC50 was > 26 µM (inactive). Consider `c1ccc(-c2nc(NCc3ccco3)c3ccccc3n2)nc1`, for which the AC50 is > 26 µM (inactive). As for `O=C(Nc1ccc(Cc2ccncc2)cc1)c1ccc([N+](=O)[O-])o1`, the AC50 was > 26 µM (inactive). As for `Cn1cc(C(=O)N/N=C/c2c(O)ccc3ccccc23)ccc1=O`, the AC50 was > 26 µM (inactive). Regarding `O=C(NC(NC(=S)Nc1ccccc1)C(Cl)(Cl)Cl)c1cccc(Cl)c1` (stereo not drawn), the AC50 was > 26 µM (inactive).

In the case of `Cc1nc2c3cc(F)ccc3n(Cc3ccccc3)c2s1`, the AC50 is > 26 µM (inactive). `COc1ccc(-c2c([C@H]3[C@H]4C=CC[C@@H](C)[C@@H]4C(=O)N3Cc3ccccc3)ccc3ccccc23)cc1`: the AC50 was > 26 µM (inactive). As to `O=S1(=O)C=C(Sc2nc3ccccc3s2)c2ccccc21`, the AC50 is > 26 µM (inactive). With `CC1CCCCC1NS(=O)(=O)c1ccc(S(=O)(=O)NCc2ccncc2)cc1` (stereo not drawn), the AC50 was > 26 µM (inactive). As for `CCCC(=O)NC(c1ccccc1OC)c1ccc2cccnc2c1O` (stereo not drawn), the AC50 is > 26 µM (inactive). With `CCCCCCCCCCOC(=O)Cn1c(COc2ccccc2)[n+](C)c2ccccc21`, the AC50 was > 26 µM (inactive). As for `Cc1ccnc(NC(=O)c2ccc([N+](=O)[O-])s2)c1`, the figure is > 26 µM (inactive); as for `CCCCC[n+]1cccc2c3ccccc3ccc21`, > 26 µM (inactive); as for `COc1ccc(C(=O)Nc2ccccc2C(=O)N/N=C/c2ccccn2)cc1OC`, > 26 µM (inactive).

On to `Cc1ccccc1Cn1ccc(=NCc2ccccc2)cc1`, for which the AC50 was > 26 µM (inactive). Consider `COc1ccc(N(C(=O)CCl)C(C(=O)NCCc2ccccc2)c2cccs2)cc1Cl` (stereo not drawn), for which the AC50 is > 26 µM (inactive). For the molecule `Cc1ccccc1/C=N/Nc1ccnc2cc(Cl)ccc12`, the AC50 was > 26 µM (inactive). The result for `COc1ccc(C(=O)N/N=C/c2ccccc2OC(=O)c2ccccc2)cc1` reads > 26 µM (inactive); that for `COc1ccc(/C=C/C(=O)c2ccc([N+](=O)[O-])o2)cc1`, > 26 µM (inactive); that for `Cc1ccc(C)c(S(=O)(=O)Nc2cc(SCC(=O)O)c(O)c3ccccc23)c1`, > 26 µM (inactive). As for `O=C(CNC(=O)c1ccccc1O)N/N=C/c1cc(Br)ccc1OC(=O)/C=C/c1ccco1`, the figure is > 26 µM (inactive). In the case of `COc1ccc([N+](=O)[O-])c(S(=O)(=O)c2ccccc2)n1`, the AC50 was > 26 µM (inactive). On to `CC(=O)N1CCCc2cc(S(=O)(=O)N3CCCC(C(=O)N4CCN(c5cccc(Cl)c5)CC4)C3)ccc21` (stereo not drawn), for which the AC50 was > 26 µM (inactive). On to `O=C(N/N=C/c1cc(Br)ccc1OC(=O)c1ccc(Br)cc1)c1ccncc1`, for which the AC50 is > 26 µM (inactive).

In the case of `CCC1CCCCN1S(=O)(=O)c1ccc(NC(=O)c2nc(S(C)(=O)=O)ncc2Cl)cc1` (stereo not drawn), the AC50 is > 26 µM (inactive). For the molecule `CC(C)CN(C(=O)COC(=O)C12CC3CC(CC(Cl)(C3)C1)C2)c1c(N)n(Cc2ccccc2)c(=O)[nH]c1=O`, the AC50 is > 26 µM (inactive). Regarding `Cn1nc(C(C)(C)C)cc1C(=O)NCc1ccc2c(c1)OCO2`, the AC50 was > 26 µM (inactive). On to `CCNC(=O)Nc1cc(S(=O)(=O)Nc2ccc(OC)cc2)ccc1N1CCOCC1`, for which the AC50 was > 26 µM (inactive). As for `Cc1ccc(-c2cn(-c3ccc(SC(F)F)cc3)c3[n+]2CCC3)cc1`, the AC50 is > 26 µM (inactive). As to `COC(=O)c1ccc2[nH]c3cccc(/C(=C/c4ccccc4)c4ccccc4)c3c2c1`, the AC50 was > 26 µM (inactive). Regarding `C/C(=N\NC(=O)c1ccccc1Cl)c1ccccn1`, the AC50 was > 26 µM (inactive). Consider `O=C(Nc1ccc([N+](=O)[O-])cc1)Nc1nc(-c2ccc(Cl)s2)cs1`, for which the AC50 was > 26 µM (inactive).

For the molecule `O=C(NCc1cccnc1)/C(=C\c1ccc(-c2cccc(Cl)c2)o1)S(=O)(=O)c1ccccc1`, the AC50 was > 26 µM (inactive).

With `CCc1nnc(NC(=O)c2cccc(C(=O)Nc3nnc(CC)s3)n2)s1`, the AC50 was > 26 µM (inactive). Regarding `CCOC(=O)C(C)/C(C)=N/NC(=O)c1cc2ccccc2cc1O` (stereo not drawn), the AC50 was > 26 µM (inactive). `O=C1C(C2=NC(c3ccccn3)C3C(=O)N(c4ccc(OC(F)(F)F)cc4)C(=O)C23)=C(O)c2ccccc21` (stereo not drawn): the AC50 is > 26 µM (inactive).

Turning to `CC(C)CNC(=O)COC(=O)c1c2c(nc3ccccc13)/C(=C/c1cccs1)CC2`, the AC50 was > 26 µM (inactive). Regarding `c1ccc(C2(Cn3ccc4ccccc43)OCCO2)cc1`, the AC50 is > 26 µM (inactive). Consider `COc1ccc(C(NC(C)=O)c2cc(Cl)c3cccnc3c2O)cc1OC` (stereo not drawn), for which the AC50 is > 26 µM (inactive). As for `Nc1ccccc1N=Cc1c(O)n(CCC2=CCCCC2)c(=O)[nH]c1=O`, the AC50 was > 26 µM (inactive). For `CCOC(=O)/C(=C\c1ccc(OC(F)F)cc1)C1=Nn2c(nnc2-c2ccc(Cl)cc2)SC1`, the AC50 was > 26 µM (inactive). The result for `CCOC(=O)C1(Cc2cccc(Cl)c2)CCCN(C(=O)c2ccc(COC)s2)C1` (stereo not drawn) reads > 26 µM (inactive). Regarding `Cc1ccc(C(=O)C[n+]2cc(-c3ccc(C)cc3)n3c2CCCCC3)cc1`, the AC50 is > 26 µM (inactive). As to `Cc1ccc(NC(=O)NCC2CCN(Cc3cccc(Cl)c3)CC2)cc1Cl`, the AC50 is > 26 µM (inactive). As for `COc1ccc(-n2cc(-c3ccccc3)[n+]3c2CCCCC3)cc1`, the AC50 is > 26 µM (inactive). With `C=CCN1C(=O)N/C(=C/c2ccc(N3CCOCC3)o2)C1=O`, the AC50 is > 12 µM (inactive).

These data come from PubChem BioAssay AID463206 (Broad Institute, 2010).
